Data published in patent US12194070B2, “Traditional chinese medicine compound for improving testicular dysfunction, preparation method and application thereof” (Ningxia Medical University, priority 2023, dated 2025).
Structures can show the parent of a compound that is named as a salt.

How the values were obtained:
Format in all cases: in vivo, C57BL/6J mice
[1] = tested on: obese type 2 diabetic mice; experiment: Testis, epididymis and seminal vesicle gland coefficients; settings: metformin 200 mg/kg/d, after 30 days
[2] = tested on: obese type 2 diabetic mice; experiment: Cage experiment (fertility)
Protocol: Female mice of childbearing age are caged with male mice of each group in the ratio of 2:1 for one week, and their fertility is tested by the birth situation.

mouse testis tissue = experiment: HE staining of testis tissue (testicular morphology); settings: HE staining 200x; metformin 200 mg/kg/d, after 30 days
[3] = tested on: mice with testicular dysfunction caused by obese type 2 diabetes mellitus; experiment: Insulin tolerance test (ITT); settings: metformin 200 mg/kg/d, after 30 days; blood glucose 0-120 min after insulin
Protocol: (§1) 2.3 After 30 days of administration of each group in step 2.2, the following tests are performed in each group.
(§2) ITT test: the mice are weighed after 5 h fast, the insulin dosage is calculated, and FPG of the mice is measured. Blood glucose fluctuations are then monitored at 15 min, 30 min, 60 min and 120 min after insulin is given. Data is analyzed using GraphPad Prism 8.4 statistical software. Counting data of experimental results is expressed as rate/percentage (%), and measurement data is expressed as x±s. The one-way ANOVA is used to compare the groups, and the difference is statistically significant with P<0.05.

PI3K = experiment: Western blot of PI3K expression in testis; settings: Western blot gray values, metformin 200 mg/kg/d, after 30 days
Protocol: (§3) Protein samples are taken and added into concentrated gel of an electrophoresis tank for running the gel, transferring the protein from the gel to the membrane, bovine albumin (BSA) blocking and membrane washing, then primary antibodies (including PI3K (rabbit antibody), AKT (rabbit antibody), p-AKT (rabbit antibody), β-actin (rabbit antibody), Bcl-2 (rabbit antibody) and β-actin (mouse antibody) diluted at the concentration 1:1000) are added for incubation and stay overnight in the refrigerator at 4° C.; the next day, the membrane is washed, after the secondary antibodies (including: a mouse secondary antibody (1:5000) and a rabbit secondary antibody (1:2000)) are added for incubation and blocked, the membrane is washed, followed by development, and then gray values are analyzed. Data is analyzed using GraphPad Prism 8.4 statistical software. Counting data of experimental results is expressed as rate/percentage (%), and measurement data is expressed as x±s. The one-way ANOVA is used to compare the groups, and the difference is statistically significant with P<0.05.

[4] = tested on: mice with testicular dysfunction caused by obese type 2 diabetes mellitus; experiment: Oral glucose tolerance test (OGTT); settings: metformin 200 mg/kg/d, after 30 days; blood glucose 0-120 min after gavage
Protocol: as §1
as §2, with “OGTT test:” for “ITT test:”, “after 15” for “after 5”, “fast, fasting blood glucose (FPG)” for “fast, the insulin dosage is calculated, and FPG”, “is measured separately, and the amount of glucose is determined based on the mice's weight.” for “is measured.”, “after gavage.” for “after insulin is given.”

[5] = tested on: sperm of obese type 2 diabetic mice; experiment: Analysis of semen parameters; settings: metformin 200 mg/kg/d, after 30 days
Protocol: One side of epididymis in each group is put into a 12-well plate, diluted with 500 μL of normal saline, fully cut into pieces by a tissue scissor, incubated in a 37° C. incubator, and filtered by a 200-mesh sieve, and 20 μL of filtrate is collected on a cell counting plate, observed under a microscope, and the number of sperm is counted. Sperm viability, sperm motility and malformation rate are counted respectively by Yin Hong aniline black and Diff-Quick staining. Data is analyzed using GraphPad Prism 8.4 statistical software. Counting data of experimental results is expressed as rate/percentage (%), and measurement data is expressed as x±s. The one-way ANOVA is used to compare the groups, and the difference is statistically significant with P<0.05.

MDA = experiment: Serum MDA by colorimetry; settings: metformin 200 mg/kg/d, after 30 days
Protocol: (§4) The levels of T-SOD, MDA and GSH-px in serum are measured by colorimetry, and the level of testosterone (T) in serum is measured by enzyme linked immunosorbent assay (ELISA), all according to the manufacturer's instructions. Data is analyzed using GraphPad Prism 8.4 statistical software. Counting data of experimental results is expressed as rate/percentage (%), and measurement data is expressed as x±s. The one-way ANOVA is used to compare the groups, and the difference is statistically significant with P<0.05.

sperm and egg cells = experiment: In vitro fertilization with sperm of the treated mice
Text: The sperm of the mice in each group is taken for fertilization in vitro.

T-SOD = experiment: Serum T-SOD by colorimetry; settings: metformin 200 mg/kg/d, after 30 days
Protocol: as §4

testosterone (T) = experiment: Serum testosterone by ELISA; settings: metformin 200 mg/kg/d, after 30 days
Protocol: as §4

GSH-px = experiment: Serum GSH-Px by colorimetry; settings: metformin 200 mg/kg/d, after 30 days
Protocol: as §4

[6] = tested on: mice with testicular dysfunction caused by obese type 2 diabetes mellitus; experiment: Fasting blood glucose (FPG); settings: metformin 200 mg/kg/d, day 30
Protocol: as §2, with “OGTT test:” for “ITT test:”, “after 15” for “after 5”, “fast, fasting blood glucose (FPG)” for “fast, the insulin dosage is calculated, and FPG”, “is measured separately, and the amount of glucose is determined based on the mice's weight.” for “is measured.”, “after gavage.” for “after insulin is given.”
as §2

p-AKT = experiment: Western blot of p-AKT expression in testis; settings: Western blot gray values, metformin 200 mg/kg/d, after 30 days
Protocol: as §3

Bcl-2 = experiment: Western blot of Bcl-2 expression in testis; settings: Western blot gray values, metformin 200 mg/kg/d, after 30 days
Protocol: as §3

[7] = Body weight of mice with testicular dysfunction caused by obese type 2 diabetes mellitus; design: AUC of weight before treatment: unit not given beside the values
Protocol: With six mice in each group, the mice are randomly assigned after one week of adaptive rearing to a control group (Con), a model group (Model), a high-dose compound group (YPBS-H), a low-dose compound group (YPBS-L) and a metformin group (Metformin, Met). The six mice in the control group are given regular feed, the remaining mice are fed with 60% high-fat feed, the weight of each of mice is recorded every 7 days during the feeding.
The mice in each group have been successfully established after feeding for 16 weeks in step 2.1, and the mice in each group are given medicine treatment as follows.
The high-dose compound group (YPBS-H): the traditional Chinese medicine compound obtained in the embodiment 1 is given at a dose of 4 grams per kilogram per day (g/kg/d) per animal.
The low-dose compound group (YPBS-L): the traditional Chinese medicine compound obtained in the embodiment 1 is given at a dose of 2 g/kg/d per animal.
The metformin group (Met): the metformin is given at a dose of 200 mg/kg/d per animal.
During the administration, the mice are fed with the normal feed and drink water normally, and the weight changes of mice are observed. Data is analyzed using GraphPad Prism 8.4 statistical software. Counting data of experimental results is expressed as rate/percentage (%), and measurement data is expressed as x (i.e., mean)±s. The one-way analysis of variance (ANOVA) is used to compare the groups, and the difference is statistically significant with P<0.05.

[8] = after treatment, dose group not stated
[9] = females caged with males 2:1 for one week, males given metformin 200 mg/kg/d
[10] = of 10 egg cells, sperm of mice given metformin 200 mg/kg/d

Structure (SMILES): CN(C)C(=N)N=C(N)N [Met, metformin hydrochloride]
- Epididymis coefficient [1]: 0.33 ± 0.03^Δ %
- Seminal vesicle gland coefficient [1]: 1.21 ± 0.06^Δ %
- Testis coefficient [1]: 0.65 ± 0.04^Δ %
- fertility of the mice [2, 8]: improved, reaching the normal fertility level
- Average number of offspring [2, 9]: 5.3
- Pregnancy rate [2, 9]: 50%
- Vaginal suppository [2, 9]: 50%
- testicular morphology compared to the model group (mouse testis tissue): considerably improved
- ITT-AUC [3]: 760.7 ± 49.5^Δ
- PI3K/β-actin (PI3K): 0.945 ± 0.056^Δ
- OGTT-AUC [4]: 1660 ± 70.3^Δ
- Sperm count [5]: 85.02 ± 10.55^Δ 10^6/L
- Sperm malformation rate [5]: 68.18 ± 4.12^Δ %
- Sperm motility [5]: 34.55 ± 0.37^Δ %
- Sperm viability [5]: 43.84 ± 3.59^Δ %
- MDA (MDA): 5.6 ± 1.5^Δ umol/L
- binding rate of sperm and egg cells (sperm and egg cells; [8]): increases
- division of fertilized egg cells (sperm and egg cells; [8]): divide normally
- Number of division of fertilized eggs within 24 hours (sperm and egg cells; [10]): 7
- Sperm and egg binding number (sperm and egg cells; [10]): 7
- T-SOD (T-SOD): 168.4 ± 34.7^Δ U/mgprot
- Testosterone T (testosterone (T)): 5.06 ± 1.42 ng/mL
- GSH-Px (GSH-px): 2206.0 ± 535.6^Δ umol/L
- FPG on the 30th day after treatment [6]: 5.5 ± 0.9^Δ
- p-AKT/AKT (p-AKT): 0.635 ± 0.141
- Bcl-2/β-actin (Bcl-2): 1.020 ± 0.076^Δ
- AUC of weight before treatment ([7]; before treatment (16 weeks high-fat feed), metformin group): 613.8 ± 5.3^Δ
- AUC of weight after treatment ([7]; metformin 200 mg/kg/d, 30 days): 1243.0 ± 12.0^Δ
- Weight on the 30th day after treatment ([7]; metformin 200 mg/kg/d, day 30): 37.9 ± 2.2^Δ g
